Experimental data as given in patent US20190062340A1, “CORTISTATIN ANALOGS” (PRESIDENT AND FELLOWS OF HARVARD COLLEGE, priority 2016, published 2019).

Key:
[1] = Tolerability of once-daily dosing in mice (weight loss); conditions: once-daily at a dose that fully inhibits CDK8 kinase activity in vivo, experiment terminated
[2] = tested on: human umbilical vein endothelial cells (HUVECs); conditions: HUVEC proliferation; initial study of Aoki et al.; read-out: IC50, anti-proliferative activity against HUVECs; cited from earlier work
[3] = Toxicity (weight loss) over 7 day dosing; assay type: in vivo; conditions: low toxicity, no significant weight loss
hERG = hERG (Homo sapiens, UniProt Q12809); assay: hERG activity; conditions: low hERG activity is defined as IC50>1 μM
hERG, sequence (Q12809 whole entry): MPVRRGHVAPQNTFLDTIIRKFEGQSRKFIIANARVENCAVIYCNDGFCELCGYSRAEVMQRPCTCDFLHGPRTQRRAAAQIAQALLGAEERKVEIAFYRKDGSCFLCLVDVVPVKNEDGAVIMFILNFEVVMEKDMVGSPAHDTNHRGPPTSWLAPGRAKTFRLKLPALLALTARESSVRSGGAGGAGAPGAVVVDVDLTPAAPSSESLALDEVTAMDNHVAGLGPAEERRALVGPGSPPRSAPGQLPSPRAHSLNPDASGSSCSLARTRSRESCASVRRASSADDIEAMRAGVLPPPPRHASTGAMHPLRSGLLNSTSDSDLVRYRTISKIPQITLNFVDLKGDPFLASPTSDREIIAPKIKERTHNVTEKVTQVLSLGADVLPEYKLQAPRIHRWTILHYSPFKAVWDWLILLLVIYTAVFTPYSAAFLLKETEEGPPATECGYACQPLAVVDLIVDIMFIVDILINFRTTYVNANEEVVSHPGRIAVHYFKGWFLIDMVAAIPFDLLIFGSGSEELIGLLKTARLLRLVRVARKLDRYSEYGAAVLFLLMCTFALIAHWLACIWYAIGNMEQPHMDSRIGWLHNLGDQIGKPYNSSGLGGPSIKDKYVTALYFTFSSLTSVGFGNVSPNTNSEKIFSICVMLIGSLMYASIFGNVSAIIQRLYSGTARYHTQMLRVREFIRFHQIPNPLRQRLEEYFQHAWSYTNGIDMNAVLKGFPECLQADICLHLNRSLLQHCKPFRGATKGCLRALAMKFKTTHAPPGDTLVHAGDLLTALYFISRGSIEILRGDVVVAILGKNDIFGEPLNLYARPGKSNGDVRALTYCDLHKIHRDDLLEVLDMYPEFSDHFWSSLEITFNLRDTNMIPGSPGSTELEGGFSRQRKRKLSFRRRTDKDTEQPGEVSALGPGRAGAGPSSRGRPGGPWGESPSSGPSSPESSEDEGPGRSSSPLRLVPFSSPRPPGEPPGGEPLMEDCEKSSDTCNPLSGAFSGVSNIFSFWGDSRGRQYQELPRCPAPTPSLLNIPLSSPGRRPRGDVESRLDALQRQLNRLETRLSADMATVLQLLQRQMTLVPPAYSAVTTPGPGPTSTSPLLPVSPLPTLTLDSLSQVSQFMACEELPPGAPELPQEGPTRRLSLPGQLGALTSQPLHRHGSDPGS

[4] = tested on: off-target enzymes and receptors; assay: Selectivity against off-target enzymes and receptors

| selectivity against off-target enzymes and receptors [4] | Molecule | weight loss in the animal [1] | IC50 [2] | weight loss [3] | IC50 (hERG) |
| --- | --- | --- | --- | --- | --- |
|  | Cortistatin A | unacceptable weight loss | 1.8 nM |  |  |
| high selectivity | C[C@]12CC=C3C=C4CC[C@@H](O)C[C@]45CC[C@]3(O5)[C@@H]1CC[C@@H]2c1ccc2ccncc2c1 [Compound A, (3S,3 aR,9R,10aR,12aS,12bR)-3-(isoquinolin-7-yl)-3a-methyl-1,2,3,3 a,4,7,8,9,10,11,12,12b-dodecahydro-10a,12a-epoxybenzo[4,5]cyclohepta[1,2-e]inden-9-ol] |  |  | < 15% | > 1000 nM |
